Patent US11572398B2, “GLP-1 derivatives and uses thereof” (Novo Nordisk A/S, priority 2014, dated 2023)
Where two headings read alike, the source gives them in different places. Non-standard residues stand in square brackets, D forms with d. Residues, ends and D or L forms follow the SMILES beside them. *: point of attachment. X1 = O=C(O)CCCCCCCCCCCCCCCCCCC(=O)NC[C@H]1CC[C@H](C(=O)N[C@@H](CCC(=O)NCCOCCOCC(=O)NCCOCCOCC(=O)NCCOCCOCC(=O)NCCOCCOCC(=O)NCCOCCOCC(=O)NCCOCCOCC(=O)NCCCN(CCCNC(=O)COCCOCCNC(=O)COCCOCCNC(=O)COCCOCCNC(=O)COCCOCCNC(=O)COCCOCCNC(=O)COCCOCCNC(=O)CC[C@H](NC(=O)[C@H]2CC[C@H](CNC(=O)CCCCCCCCCCCCCCCCCCC(=O)O)CC2)C(=O)O)CC(=O)*)C(=O)O)CC1; Aib = CC(C)(N)C(=O)O

Experiments:
human GLP-1 receptor [1] = biological target: T1, human GLP-1 receptor (Homo sapiens, UniProt P43220); assay: In vitro potency: CRE luciferase reporter gene assay in BHK cells expressing the human GLP-1 receptor; type: cell-based
T1 construct: expressed in transfected cells; host or cells: BHK cells (parent line BHKTS13), clone FCW467-12A; membrane preparation
T1 sequence (P43220 24-463): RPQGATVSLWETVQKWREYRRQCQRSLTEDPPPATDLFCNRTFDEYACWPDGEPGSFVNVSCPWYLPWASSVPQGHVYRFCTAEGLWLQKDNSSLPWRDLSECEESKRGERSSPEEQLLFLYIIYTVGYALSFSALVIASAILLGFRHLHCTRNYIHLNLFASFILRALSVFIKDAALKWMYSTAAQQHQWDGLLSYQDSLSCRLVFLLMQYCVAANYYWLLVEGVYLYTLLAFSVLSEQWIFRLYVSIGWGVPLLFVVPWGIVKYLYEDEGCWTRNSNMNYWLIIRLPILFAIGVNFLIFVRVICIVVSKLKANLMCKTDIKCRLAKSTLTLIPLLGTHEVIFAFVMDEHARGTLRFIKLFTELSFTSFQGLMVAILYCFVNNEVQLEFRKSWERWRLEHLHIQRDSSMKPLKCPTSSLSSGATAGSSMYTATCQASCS
How it was run: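 Whole-cell assay in stably transfected BHK cells carrying CRE-driven firefly luciferase, 5×10^3 cells/well, in assay buffer with 2% ovalbumin and 0.2% Pluronic F-68. Compound working solutions were 0.2 μM.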

human GLP-1 receptor [2] = biological target: T1, human GLP-1 receptor; assay: GLP-1 receptor binding: competitive binding assay (125I-GLP-1, SPA) on isolated membranes at low and high HSA
[3] = Pharmacokinetic study in minipigs (i.v.); conditions: male, Göttingen, minipig, in vivo, iv
Description: (§1) The purpose of this study is to determine the protraction in vivo of the GLP-1 derivatives after i.v. administration to minipigs, i.e. the prolongation of their time in the body and thereby their time of action. This is done in a pharmacokinetic (PK) study, where the terminal half-life of the derivative in question is determined. By terminal half-life is meant the time it takes to halve a certain plasma concentration in the terminal elimination phase.
(§2) Male Göttingen minipigs were obtained from Ellegaard Göttingen Minipigs (Dalmose, Denmark) approximately 7-14 months of age and weighing approximately 16-35 kg were used in the studies. The minipigs were housed either individually (pigs with permanent catheters) or in a group and fed restrictedly once or twice daily with SDS minipig diet (Special Diets Services, Essex, UK).
(§3) After at least 2 weeks of acclimatisation two permanent central venous catheters were implanted in vena cava caudalis or cranialis in each animal. The animals were allowed 1 week recovery after the surgery, and were then used for repeated pharmacokinetic studies with a suitable wash-out period between successive GLP-1 derivative dosings.
(§4) Blood samples (for example 0.8 ml) were collected in EDTA buffer (8 mM) and then centrifuged at 4° C. and 1942G for 10 minutes.
(§5) Plasma was pipetted into Micronic tubes on dry ice, and kept at −20° C. until analysed for plasma concentration of the respective GLP-1 compound using LOCI. Individual plasma concentration-time profiles were analyzed by a non-compartmental pharmacokinetic method in Phoenix v. 6.2 (Pharsight Inc., Mountain View, Calif., USA), or other relevant software for PK analysis, and the resulting terminal half-lives (harmonic mean) determined.

in vivo = conditions: male, Göttingen, minipig, iv
Description: as §1, §2, §3, §4, §5

[4] = whole cell reporter gene assay, BHK cells, human GLP-1 receptor, average of at least two replicates, read-out: EC50
[5] = Low HSA IC50, low HSA (max. 0.001% final assay concentration)
[6] = high HSA (2.0% final assay concentration), read-out: High HSA IC50

SMILES | EC50 (human GLP-1 receptor [1]; [4]) [nM] | IC50 (human GLP-1 receptor [2]; [5]) [nM] | IC50 (human GLP-1 receptor [2]; [6]) [nM] | half-life ([3]; 5 nmol/kg) [h] | half-life ([3]; 2 nmol/kg) [h] | other results
CC[C@H](C)[C@H](NC(=O)[C@H](Cc1ccccc1)NC(=O)[C@H](CCC(=O)O)NC(=O)[C@H](CCCNC(=N)N)NC(=O)[C@H](C)NC(=O)[C@H](C)NC(=O)[C@H](CCC(N)=O)NC(=O)[C@H](CCC(=O)O)NC(=O)[C@H](CCC(=O)O)NC(=O)[C@H](CC(C)C)NC(=O)[C@H](Cc1ccc(O)cc1)NC(=O)[C@H](CO)NC(=O)[C@H](CO)NC(=O)[C@@H](NC(=O)[C@H](CC(=O)O)NC(=O)[C@H](CO)NC(=O)[C@@H](NC(=O)[C@H](Cc1ccccc1)NC(=O)[C@@H](NC(=O)CNC(=O)[C@H](CCC(=O)O)NC(=O)C(C)(C)NC(=O)[C@@H](N)Cc1c[nH]cn1)[C@@H](C)O)[C@@H](C)O)C(C)C)C(=O)N[C@@H](C)C(=O)N[C@@H](Cc1c[nH]c2ccccc12)C(=O)N[C@@H](CC(C)C)C(=O)N[C@H](C(=O)N[C@@H](CCCNC(=N)N)C(=O)NCC(=O)N[C@@H](CCCNC(=N)N)C(=O)N[C@@H](CCCCNC(=O)CN(CCCNC(=O)COCCOCCNC(=O)COCCOCCNC(=O)COCCOCCNC(=O)COCCOCCNC(=O)COCCOCCNC(=O)COCCOCCNC(=O)CC[C@H](NC(=O)[C@H]1CC[C@H](CNC(=O)CCCCCCCCCCCCCCCCCCC(=O)O)CC1)C(=O)O)CCCNC(=O)COCCOCCNC(=O)COCCOCCNC(=O)COCCOCCNC(=O)COCCOCCNC(=O)COCCOCCNC(=O)COCCOCCNC(=O)CC[C@H](NC(=O)[C@H]1CC[C@H](CNC(=O)CCCCCCCCCCCCCCCCCCC(=O)O)CC1)C(=O)O)C(=O)O)C(C)C [Example 3] | 0.02 | 0.41 | 22 | 159 |  | 
CC[C@H](C)[C@H](NC(=O)[C@H](Cc1ccccc1)NC(=O)[C@H](CCC(=O)O)NC(=O)[C@H](CCCNC(=N)N)NC(=O)[C@H](C)NC(=O)[C@H](C)NC(=O)[C@H](CCC(N)=O)NC(=O)[C@H](CCC(=O)O)NC(=O)[C@H](CCC(=O)O)NC(=O)[C@H](CC(C)C)NC(=O)[C@H](Cc1ccc(O)cc1)NC(=O)[C@H](CO)NC(=O)[C@H](CO)NC(=O)[C@@H](NC(=O)[C@H](CC(=O)O)NC(=O)[C@H](CO)NC(=O)[C@@H](NC(=O)[C@H](Cc1ccccc1)NC(=O)[C@@H](NC(=O)CNC(=O)[C@H](CCC(=O)O)NC(=O)C(C)(C)NC(=O)[C@@H](N)Cc1c[nH]cn1)[C@@H](C)O)[C@@H](C)O)C(C)C)C(=O)N[C@@H](C)C(=O)N[C@@H](Cc1c[nH]c2ccccc12)C(=O)N[C@@H](CC(C)C)C(=O)N[C@H](C(=O)N[C@@H](CCCNC(=N)N)C(=O)NCC(=O)N[C@@H](CCCNC(=N)N)C(=O)N[C@@H](CCCCNC(=O)CN(CCCNC(=O)CCOCCOCCOCCOCCOCCOCCOCCOCCOCCOCCOCCOCCOCCOCCOCCOCCOCCOCCOCCOCCOCCOCCOCCOCCNC(=O)[C@@H](N)CCCCNC(=O)[C@@H](N)CCCCNC(=O)CCCCCCCCCCCCCCCCCCC(=O)O)CCCNC(=O)CCOCCOCCOCCOCCOCCOCCOCCOCCOCCOCCOCCOCCOCCOCCOCCOCCOCCOCCOCCOCCOCCOCCOCCOCCNC(=O)[C@@H](N)CCCCNC(=O)[C@@H](N)CCCCNC(=O)CCCCCCCCCCCCCCCCCCC(=O)O)C(=O)O)C(C)C [Example 6] | 0.0072 |  | 9 |  |  | IC50 (human GLP-1 receptor [2]; low HSA (max. 0.001% final assay concentration), read-out: Low HSA IC50): 0.05 nM; half-life (in vivo): 143 h
CC[C@H](C)[C@H](NC(=O)[C@H](Cc1ccccc1)NC(=O)[C@H](CCC(=O)O)NC(=O)[C@H](CCCNC(=N)N)NC(=O)[C@H](C)NC(=O)[C@H](C)NC(=O)[C@H](CCC(N)=O)NC(=O)[C@H](CCC(=O)O)NC(=O)[C@H](CCC(=O)O)NC(=O)[C@H](CC(C)C)NC(=O)[C@H](Cc1ccc(O)cc1)NC(=O)[C@H](CO)NC(=O)[C@H](CO)NC(=O)[C@@H](NC(=O)[C@H](CC(=O)O)NC(=O)[C@H](CO)NC(=O)[C@@H](NC(=O)[C@H](Cc1ccccc1)NC(=O)[C@@H](NC(=O)CNC(=O)[C@H](CCC(=O)O)NC(=O)C(C)(C)NC(=O)[C@@H](N)Cc1c[nH]cn1)[C@@H](C)O)[C@@H](C)O)C(C)C)C(=O)N[C@@H](C)C(=O)N[C@@H](Cc1c[nH]c2ccccc12)C(=O)N[C@@H](CC(C)C)C(=O)N[C@H](C(=O)N[C@@H](CCCNC(=N)N)C(=O)NCC(=O)N[C@@H](CCCNC(=N)N)C(=O)N[C@@H](CCCCNC(=O)CN(CCCNC(=O)COCCOCCNC(=O)COCCOCCNC(=O)COCCOCCNC(=O)COCCOCCNC(=O)COCCOCCNC(=O)[C@@H](N)CCCCNC(=O)[C@@H](N)CCCCNC(=O)CCCNC(=O)CCCCCCCCCCCCCCCS(=O)(=O)O)CCCNC(=O)COCCOCCNC(=O)COCCOCCNC(=O)COCCOCCNC(=O)COCCOCCNC(=O)COCCOCCNC(=O)[C@@H](N)CCCCNC(=O)[C@@H](N)CCCCNC(=O)CCCNC(=O)CCCCCCCCCCCCCCCS(=O)(=O)O)C(=O)O)C(C)C [Example 9, N{Epsilon-37}-[2-[bis[3-[[2-[2-[2-[[2-[2-[2-[[2-[2-[2-[[2-[2-[2-[[2-[2-[2-[[(2S)-2-amino-6-[[(2S)-2-amino-6-[4-(16-sulfohexadecanoylamino)butanoylamino]hexanoyl]amino]hexanoyl]amino]ethoxy]ethoxy]acetyl]amino]ethoxy]ethoxy]acetyl]amino]ethoxy]ethoxy]acetyl]amino]ethoxy]ethoxy]acetyl]amino]ethoxy]ethoxy]acetyl]amino]propyl]amino]acetyl]-[Aib8,Glu22,Arg26,Arg34,Lys37]-GLP-1-(7-37)-peptide] |  | 0.16 |  | 104 |  | EC50 (human GLP-1 receptor [1]): 0.0016 nM; IC50 (human GLP-1 receptor [2]; High HSA IC50, high HSA (2.0% final assay concentration)): 29 nM
CC[C@H](C)[C@H](NC(=O)[C@H](Cc1ccccc1)NC(=O)[C@H](CCC(=O)O)NC(=O)[C@H](CCCNC(=N)N)NC(=O)[C@H](C)NC(=O)[C@H](C)NC(=O)[C@H](CCC(N)=O)NC(=O)[C@H](CCC(=O)O)NC(=O)[C@H](CCC(=O)O)NC(=O)[C@H](CC(C)C)NC(=O)[C@H](Cc1ccc(O)cc1)NC(=O)[C@H](CO)NC(=O)[C@H](CO)NC(=O)[C@@H](NC(=O)[C@H](CC(=O)O)NC(=O)[C@H](CO)NC(=O)[C@@H](NC(=O)[C@H](Cc1ccccc1)NC(=O)[C@@H](NC(=O)CNC(=O)[C@H](CCC(=O)O)NC(=O)C(C)(C)NC(=O)[C@@H](N)Cc1c[nH]cn1)[C@@H](C)O)[C@@H](C)O)C(C)C)C(=O)N[C@@H](C)C(=O)N[C@@H](Cc1c[nH]c2ccccc12)C(=O)N[C@@H](CC(C)C)C(=O)N[C@H](C(=O)N[C@@H](CCCNC(=N)N)C(=O)NCC(=O)N[C@@H](CCCNC(=N)N)C(=O)N1CCC[C@H]1C(=O)N[C@@H](CCCCNC(=O)CN(CCCNC(=O)COCCOCCNC(=O)COCCOCCNC(=O)COCCOCCNC(=O)COCCOCCNC(=O)COCCOCCNC(=O)COCCOCCNC(=O)CC[C@H](NC(=O)[C@H]1CC[C@H](CNC(=O)CCCCCCCCCCCCCCCCCCC(=O)O)CC1)C(=O)O)CCCNC(=O)COCCOCCNC(=O)COCCOCCNC(=O)COCCOCCNC(=O)COCCOCCNC(=O)COCCOCCNC(=O)COCCOCCNC(=O)CC[C@H](NC(=O)[C@H]1CC[C@H](CNC(=O)CCCCCCCCCCCCCCCCCCC(=O)O)CC1)C(=O)O)C(=O)O)C(C)C [Example 10] (H-H[Aib]EGTFTSDVSSYLEEQAAREFIAWLVRGRPK(X1)-OH; N-terminus and C-terminus assumed) |  |  |  |  | 151 | 
CC[C@H](C)[C@H](NC(=O)[C@H](Cc1ccccc1)NC(=O)[C@H](CCC(=O)O)NC(=O)[C@H](CCCNC(=N)N)NC(=O)[C@H](C)NC(=O)[C@H](C)NC(=O)[C@H](CCC(N)=O)NC(=O)[C@H](CCC(=O)O)NC(=O)[C@H](CCC(=O)O)NC(=O)[C@H](CC(C)C)NC(=O)[C@H](Cc1ccc(O)cc1)NC(=O)[C@H](CO)NC(=O)[C@H](CO)NC(=O)[C@@H](NC(=O)[C@H](CC(=O)O)NC(=O)[C@H](CO)NC(=O)[C@@H](NC(=O)[C@H](Cc1ccccc1)NC(=O)[C@@H](NC(=O)CNC(=O)[C@H](CCC(=O)O)NC(=O)C(C)(C)NC(=O)[C@@H](N)Cc1c[nH]cn1)[C@@H](C)O)[C@@H](C)O)C(C)C)C(=O)N[C@@H](C)C(=O)N[C@@H](Cc1c[nH]c2ccccc12)C(=O)N[C@@H](CC(C)C)C(=O)N[C@H](C(=O)N[C@@H](CCCNC(=N)N)C(=O)NCC(=O)N[C@@H](CCCNC(=N)N)C(=O)N[C@@H](CCCCNC(=O)COCCOCCNC(=O)COCCOCCNC(=O)COCCOCCNC(=O)COCCOCCNC(=O)CN(CCCNC(=O)CC[C@H](NC(=O)[C@H]1CC[C@H](CNC(=O)CCCCCCCCCCCCCCCCCCC(=O)O)CC1)C(=O)O)CCCNC(=O)CC[C@H](NC(=O)[C@H]1CC[C@H](CNC(=O)CCCCCCCCCCCCCCCCCCC(=O)O)CC1)C(=O)O)C(=O)O)C(C)C [Example 27, N{Epsilon-37}-[2-[2-[2-[[2-[2-[2-[[2-[2-[2-[[2-[2-[2-[[2-[bis[3-[[(4S)-4-carboxy-4-[[4-[(19-carboxynonadecanoylamino)methyl]cyclohexanecarbonyl]amino]butanoyl]amino]propyl]amino]acetyl]amino]ethoxy]ethoxy]acetyl]amino]ethoxy]ethoxy]acetyl]amino]ethoxy]ethoxy]acetyl]amino]ethoxy]ethoxy]acetyl]-[Aib8,Glu22,Arg26,Arg34,Lys37]-GLP-1-(7-37)-peptide] |  |  |  |  | 138 | 
